Values joined by “and” are separate entries in the source; they are usually repeats but may differ in a detail not shown here. Equal values may be shown once. Read-outs that look alike come from different tables or passages of the source.
Experiments:
H9 cells = format: cell-based; settings: human, 192 h
Method: A series of drug concentrations ranging from 1.25 μg/ml to 160 μg/ml were used for testing the cytotoxicity of M522 and M532 in H9 cells, using the MTT assay to determine the viability of H9 cells in culture. […] In fact, the drug-protected, HIV-infected H9 cells appeared to be morphologically identical to the uninfected control cells (6).
(§1) Similarly, PBMC cells were isolated from a healthy blood sample and these cells were stimulated by PHA and IL-2. PBMC (5×10^6/ml) were infected with HIV-1RTMF. The cells were treated with three combinations of drugs, M522, Gen-1 and G4N. Fresh media and drugs were added after 4 days with drug concentrations 0, 1.25, 2.5, 5, 10, 20, 40 and 80 μM. The inhibition for HIV-1 by these combinations of drugs was also examined by using p24 assay after 8 days. […] In comparison, cytotoxicity for the three drugs combined to H9 cells was also analyzed using an MTT assay.

HIV-1 integrase = HIV-1 integrase (Human immunodeficiency virus type 1 group M subtype B, UniProt P04585); assay: HIV-1 integrase catalytic activity of 3'-joining to the target DNA; format: biochemical
Source text: (§2) a. Salvia genus of Labiaceae family contains approximately 1000 species. 78 of these are distributed in different regions in China. […] An INi search was established based on an assay-guided purification procedure utilizing different concentrations of methanol, propanol, a two-layer extraction system (low salt water/butanol), and a high resolution inverted phase HPLC (Sperisorb OD S-2).

HIV = HIV entry in H9 cells; format: cell-based; settings: compound by itself
Source text: as §2

reverse transcriptase = molecular target: T1, reverse transcriptase (Human immunodeficiency virus type 1 group M subtype B, UniProt P04585); assay: Reverse transcriptase activity and viral DNA levels in infected cells; format: cell-based, HIV
T1 construct: endogenous in cells; host or cells: HIV-infected cells (H9 cells named in the same paragraph)
Source text: as §2

HIV-1 [1] = assay: Acute HIV-1 infection of H9 cells; format: cell-based; settings: Human immunodeficiency virus 1
Source text: as §2

[2] = test system: HIV-1RTMF (AZT-resistant virus); assay: HIV replication in infected H9 cells, HIV/p24 monoclonal antibody assay; format: cell-based
Method: (§3) The inhibitory effect of M522 and M532 against HIV replication was further examined using 5 different strains of HIV-1, drug resistant and primary isolates in the presence of a variety of drug concentrations in infected H9 cells.
A series of drug concentrations ranging from 1.25 μg/ml to 160 μg/ml were used for testing the cytotoxicity of M522 and M532 in H9 cells, using the MTT assay to determine the viability of H9 cells in culture.

HIV-1IIIBA17 variant = assay: as above; format: cell-based; settings: Human immunodeficiency virus 1, H9
Source text: as §3

HIV-1IIIB = assay: as above; format: cell-based; settings: Human immunodeficiency virus 1
Source text: as §3

[3] = test system: HIV-1L1OR/M461/L63P.V82T/184V (protease inhibitor resistant virus); assay: as above; format: cell-based; settings: Human immunodeficiency virus 1, H9
Source text: as §3

HIV-1MN = assay: as above; format: cell-based; settings: Human immunodeficiency virus 1
Source text: as §3

[4] = molecular target: deletion mutant HIV-1 integrase (IN^50-212) (Human immunodeficiency virus type 1 group M subtype B, UniProt P04585); assay: Disintegration assay; format: biochemical; settings: IN^50-212 core domain; equal efficacy with wild type
Method: (§4) To determine whether M522 and M532 are acting against the catalytic core domain specifically, disintegration assay was tested using deletion mutant IN containing only the core domain of HIV integrase. Such deletion mutant is defective for normal integration, but it is capable of catalyzing a reversal of the forward reaction, termed “disintegration”. The disintegration reaction can be assayed by using a deletion mutant HIV-1 integrase (IN^50-212) which lacks both the amino terminal zinc binding and the carboxyl terminal DNA binding domains but remains active in this assay, whereas such truncated IN loses activity in the 3′-processing and joining (strand transfer) assays. So, disintegration assay can be used to probe the site of drug-enzyme binding.

[5] = molecular target: wild type HIV-1 integrase (Human immunodeficiency virus type 1 group M subtype B, UniProt P04585); assay: Disintegration assay; format: biochemical; settings: equal efficacy with deletion mutant
Method: as §4

HIV-1RTMF = assay: Drug combination study in H9 cells infected with HIV-1RTMF, p24 assay; format: cell-based
Source text: We tested drug combinations against two different cells infected with laboratory strain of HIV-1 RTMF. For these drug combinational studies, both the H9 cells and human PBMC have been used. We first tested how our inhibitors affect one specific strain of HIV which is resistant to drug against RT (HIV-1RTMF). Briefly H9 (1×10^5/ml) were infected with HIV-1RTMF strain with a multiplicity of infection of 0.1. These cells were further tested with three drugs, M522, Gen-1 and G4N, either in combination or separately (8, 10, 21B). After 4-day incubation at 37° C., H9 cells were subcultured with fresh culture medium containing appropriate concentrations 0, 1.25, 2.5, 5, 10, 20, 40 and 80 μM of each of the drugs, or of a combination of all three of the drugs, each at the indicated concentration. The inhibition for HIV-1 by these combinations of drugs was examined using p24 assay after 8 days.
as §1

[6] = test system: acyclovir-resistant strains of HSV-1; assay: Inhibition of acyclovir-resistant strains of HSV-1; format: cell-based
Source text: Because the inhibitory mechanism of this class of compounds is completely distinct from the antiviral mechanism of nucleoside analogue agents, there is little possibility of cross-resistance between these two classes of drugs.

HSV-2 = assay: Mouse vaginal model of HSV-2 infection; format: in vivo, female CF-1 mice
Source text: P4N was also found to be quite effective.

[7] = mouse, in vivo
Source text: The efficacies of M4N and G4N against HSV-2 in a mouse vaginal model system were also examined. Progestin-treated female CF-1 mice (10 per group) were infected with HSV-2 in the absence or presence of G4N (in PBS), P4N (in PBS), or M4N in Vaseline (23). At the end of three days, the vaginal lavages were collected from the washings of the vagina regions. The status of the vaginal HSV-2 infection and replication were examined by their cytopathic effects on cultured human foreskin fibroblast cells. Monitoring and scoring were carried out by three persons independently.

[8] = test system: HIV Sp1 enhancer sequence; assay: Binding to Sp1 enhancer sequence by ethidium displacement; settings: excitation 517 nm, emission 596 nm
Source text: The mechanism underlying the antiviral action for NDGA derivatives was largely unknown before 1995. In 1995, Huang's group first reported a molecular study on 3′-O-methyl NDGA (FIG. 11, Mal 4)(15) isolated from creosote bush (Larrea tridentate) (16,3). […] NDGA derivatives interfere with the binding of transcription factor Sp1 to the promoter of the HIV proviral template. The target of Mal.4 is mapped to nucleotides −87 to −40, the Sp1 binding sites of the HIV long terminal repeat (LTR). […] However, large preparations of such NDGA derivatives from plant sources are labor intensive and costly. In anticipation of the possible clinical use of lignans in controlling Sp1-regulated viral and tumor growth in humans, nine different methylated NDGAs and several water soluble NDGA derivatives were synthesized chemically in large quantities with low cost (17, 18, 26, FIG. 11). Unsubstituted NDGA was used as the parent substrate. […]

HSV-1 = assay: Dorsal cutaneous guinea pig model of HSV-1 infection; format: in vivo
Method: M4N and G4N were tested for their abilities to prevent HSV-1 infection in two animal model systems. The dorsal cutaneous guinea pig model system is a well-established model for HSV-1 infection that has been used in several studies to comparatively assess the potential efficacy of different topical formulations for treatment of herpes labialis. Straten M V, Carrasco D, Lee P, Tyring S K, Arch. Dermatol 137, 1232-1235 2001.

[9] = Topical toxicity in guinea pigs; format: in vivo
HIV-1 [10] = settings: read-out: inhibited HIV replication (IC90); FIG. 5
HIV-1 [11] = test system: HIV-1

In the case of `O=C(/C=C/c1ccc(O)c2c1[C@H](C(=O)O)[C@@H](c1ccc(O)c(O)c1)O2)O[C@H](Cc1ccc(O)c(O)c1)C(=O)O` [M522, lithospermic acid], the “CC100 (highest concentration tested, cells remained viable)” value (H9 cells) is reported as 160 µg/mL, the IC50 (HIV-1 integrase) is reported as 0.48 µM and the “prevention of HIV entry” value (HIV) is reported as “Neither M522 nor M532 by itself prevents HIV entry”. For the same compound, the “levels of intracellular strong stop and full-length viral DNA” value (reverse transcriptase; following drug treatment) was “remained unchanged”, the “inhibition of reverse transcriptase activity” value (reverse transcriptase; infected cells) was “no inhibition of reverse transcriptase activity” and the IC50 (HIV-1 [1]) was 2 µM. The syncytia formation ([2]; H9 cells infected with HIV-1RTMF in the presence of drug) was “syncytia formation was prevented”, the IC50 ([2]; Human immunodeficiency virus 1, H9) was 2.5 µg/mL and 4.6 µM and the IC50 (HIV-1IIIBA17 variant) was 1.1 µg/mL and 2 µM. For the same compound, the IC50 (HIV-1IIIB) was 11 µg/mL and 20.4 µM, the IC50 [3] was 6 µg/mL and 11.1 µM and the IC50 (HIV-1MN) was 16.7 µM and 9 µg/mL. The inhibition of disintegration [4] was “inhibited”, the inhibition of disintegration [5] was “inhibited” and the IC50 (HIV-1RTMF; Human immunodeficiency virus 1, H9, 192 h) was 4 to 6 µM.
For `COc1ccc(C[C@@H](C)[C@@H](C)Cc2ccc(OC)c(OC)c2)cc1OC` [M4N, tetra-O-methyl NDGA], the “efficacy against acyclovir-resistant strains” value [6] was “retains complete efficacy”, the “infection in the other 4 mice” value (HSV-2; 20 mg/ml in Vaseline) was “very little infection” and the “mice fully infected, out of 8” value (HSV-2; 20 mg/ml in Vaseline) was 4. The “score of the fully infected mice” value (HSV-2; 20 mg/ml in Vaseline) was 3-4 and the toxicity [7] was “no toxicity”.
For `C[C@H](Cc1ccc(OC(=O)CN(C)C)c(OC(=O)CN(C)C)c1)[C@@H](C)Cc1ccc(OC(=O)CN(C)C)c(OC(=O)CN(C)C)c1` [G4N, meso-1,4-bis[3,4-(dimethylaminoacetoxy)phenyl]-(2R,3S)dimethylbutane], the “apparent equilibrium binding constant (Kapp)” value [8] was 3e+06 M⁻¹, the “efficacy against acyclovir-resistant strains” value [6] was “no cross-resistance” and the “response to treatment (visual assessment)” value (“response to treatment” below) (HSV-1; 5 μM) was “semi-effective”. For the same compound, the “response to treatment” value (HSV-1; 10 μM) was “more effective”, the “response to treatment” value (HSV-1; 150 μM) was “extremely effective” and the “HSV-1 induced cutaneous lesion formation and viral shedding” value (HSV-1; guinea pig, in vivo) was “effectively inhibited”. The average score (HSV-2; 0.1 mM) was 0.5, the infection (HSV-2; 0.1 mM) was roughly 12.5 % infection and the animals infected (HSV-2; 0.1 mM, 10 mice per group, day 3 vaginal lavage) was 1 out of 10. For the same compound, the animals infected (HSV-2; 10 mM, 10 mice per group) was “no infections detected”, the animals infected (HSV-2; 100 mM) was “no infections detected” and the “toxicity or dermal irritation” value ([9]; highest soluble concentrations (150 mM)) was “no evidence of toxicity or dermal irritation”. For the same compound, the toxicity ([9]; topical application for six days, up to 50 mM) was “no evidence of toxicity” and the IC50 (HIV-1RTMF; H9 cells, p24 assay after 8 days, for the combination, this concentration of each drug, read-out: IC50) was 18 µM.
For acetylated Tieghemelin [oAc-Gen-1], the IC90 (HIV-1 [10]) was roughly 10 µM, the “HIV-1 entry and infection in CD4+ cells” value (HIV-1 [11]; preincubation of drug with CD4+ cells) was “did not prevent HIV-1 entry and infection” and the “infectivity of HIV-1” value (HIV-1 [11]; preincubation of drug with HIV-1 virus) was “totally inactivated the infectivity”.

From US9259433B2, “Synergistic antiviral compositions comprising a viral attachment inhibitor, an integration inhibitor, and a proviral transcription inhibitor, and their use” (priority 2007, dated 2016)
